Laboratory results: article PMC7206119, “RIP1 inhibition blocks inflammatory diseases but not tumor growth or metastases” (Cell Death and Differentiation, 2019)

Columns and labels:
Assay in all cases: biochemical
Parameters in all cases: DiscoverX kinase panel, active-site competition binding (KINOMEscan type), percent of control at one concentration
Conditions in all cases: competition binding, percent of control
ULK3 = ULK3 (Homo sapiens, UniProt Q6PHR2)
ERK3 = molecular target: T1, ERK3 (Homo sapiens, UniProt Q16659)
T1 construct: gene MAPK6

NEK4 = NEK4 (Homo sapiens, UniProt P51957)
[1] = molecular target: T2, ABL1(H396P)-nonphosphorylated (Homo sapiens, UniProt P00519, H396P)
T2 construct: nonphosphorylated

CSF1R-autoinhibited = CSF1R-autoinhibited (Homo sapiens, UniProt P07333)
FAK = molecular target: T3, FAK (Homo sapiens, UniProt Q05397)
T3 construct: gene PTK2

CDKL3 = CDKL3 (Homo sapiens, UniProt Q8IVW4)
PIKFYVE = PIKFYVE (Homo sapiens, UniProt Q9Y2I7)
[2] = molecular target: T4, ABL1(F317L)-phosphorylated (Homo sapiens, UniProt P00519, F317L)
T4 construct: phosphorylated

PKN1 = PKN1 (Homo sapiens, UniProt Q16512)
ACVR1 = ACVR1 (Homo sapiens, UniProt Q04771)
PIK3CA(C420R) = PIK3CA(C420R) (Homo sapiens, UniProt P42336, C420R)
FLT3(D835H) = FLT3(D835H) (Homo sapiens, UniProt P36888, D835H)
YANK2 = molecular target: T5, YANK2 (Homo sapiens, UniProt Q9NY57)
T5 construct: gene STK32B

[3] = molecular target: T6, RSK1(Kin.Dom.1-N-terminal) (Homo sapiens, UniProt Q15418)
T6 construct: gene RPS6KA1; Kin.Dom.1-N-terminal

CDKL1 = CDKL1 (Homo sapiens, UniProt Q00532)
FLT3(R834Q) = FLT3(R834Q) (Homo sapiens, UniProt P36888, R834Q)
[4] = molecular target: T7, ABL1(F317L)-nonphosphorylated (Homo sapiens, UniProt P00519, F317L)
T7 construct: nonphosphorylated

PRKD3 = PRKD3 (Homo sapiens, UniProt O94806)
LRRK2 = LRRK2 (Homo sapiens, UniProt Q5S007)
DAPK3 = DAPK3 (Homo sapiens, UniProt O43293)
Chain of DAPK3 (O43293 whole entry): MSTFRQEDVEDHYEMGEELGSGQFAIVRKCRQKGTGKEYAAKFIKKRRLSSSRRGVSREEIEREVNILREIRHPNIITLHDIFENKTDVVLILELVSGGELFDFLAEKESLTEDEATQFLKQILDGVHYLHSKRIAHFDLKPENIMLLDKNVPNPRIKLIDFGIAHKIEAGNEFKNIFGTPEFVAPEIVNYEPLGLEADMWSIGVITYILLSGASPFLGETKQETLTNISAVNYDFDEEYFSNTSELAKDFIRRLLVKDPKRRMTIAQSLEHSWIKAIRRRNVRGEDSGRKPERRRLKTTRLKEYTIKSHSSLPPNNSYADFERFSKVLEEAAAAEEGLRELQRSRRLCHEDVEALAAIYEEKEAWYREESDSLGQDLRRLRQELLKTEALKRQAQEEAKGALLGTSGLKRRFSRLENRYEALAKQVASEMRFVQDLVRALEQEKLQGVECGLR

Chain of CSF1R-autoinhibited (P07333 whole entry): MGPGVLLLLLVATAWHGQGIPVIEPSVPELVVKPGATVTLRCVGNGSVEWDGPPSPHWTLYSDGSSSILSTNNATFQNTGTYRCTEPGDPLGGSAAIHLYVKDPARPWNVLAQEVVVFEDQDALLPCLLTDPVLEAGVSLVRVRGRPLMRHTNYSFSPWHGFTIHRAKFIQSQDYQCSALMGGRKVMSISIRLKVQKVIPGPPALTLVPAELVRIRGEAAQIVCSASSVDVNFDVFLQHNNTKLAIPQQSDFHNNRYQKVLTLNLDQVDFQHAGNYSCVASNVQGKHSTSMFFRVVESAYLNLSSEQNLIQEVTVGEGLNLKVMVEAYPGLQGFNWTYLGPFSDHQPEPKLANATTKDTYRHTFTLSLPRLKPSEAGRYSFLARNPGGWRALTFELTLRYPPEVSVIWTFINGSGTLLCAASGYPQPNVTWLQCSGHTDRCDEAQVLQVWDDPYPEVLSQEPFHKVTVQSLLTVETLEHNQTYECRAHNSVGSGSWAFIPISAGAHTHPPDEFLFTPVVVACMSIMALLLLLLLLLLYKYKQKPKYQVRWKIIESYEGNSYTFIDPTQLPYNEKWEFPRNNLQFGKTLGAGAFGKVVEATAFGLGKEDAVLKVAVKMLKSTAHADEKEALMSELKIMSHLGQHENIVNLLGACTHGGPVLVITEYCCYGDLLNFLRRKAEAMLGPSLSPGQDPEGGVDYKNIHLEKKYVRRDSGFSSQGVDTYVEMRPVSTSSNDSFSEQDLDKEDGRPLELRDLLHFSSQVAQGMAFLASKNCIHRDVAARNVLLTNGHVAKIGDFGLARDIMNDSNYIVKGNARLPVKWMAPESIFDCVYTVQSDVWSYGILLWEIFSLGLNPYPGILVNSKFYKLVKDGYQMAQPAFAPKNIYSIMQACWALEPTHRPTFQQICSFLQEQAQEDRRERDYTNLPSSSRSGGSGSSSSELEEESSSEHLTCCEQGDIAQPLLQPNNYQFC
T1 sequence (Q16659 whole entry): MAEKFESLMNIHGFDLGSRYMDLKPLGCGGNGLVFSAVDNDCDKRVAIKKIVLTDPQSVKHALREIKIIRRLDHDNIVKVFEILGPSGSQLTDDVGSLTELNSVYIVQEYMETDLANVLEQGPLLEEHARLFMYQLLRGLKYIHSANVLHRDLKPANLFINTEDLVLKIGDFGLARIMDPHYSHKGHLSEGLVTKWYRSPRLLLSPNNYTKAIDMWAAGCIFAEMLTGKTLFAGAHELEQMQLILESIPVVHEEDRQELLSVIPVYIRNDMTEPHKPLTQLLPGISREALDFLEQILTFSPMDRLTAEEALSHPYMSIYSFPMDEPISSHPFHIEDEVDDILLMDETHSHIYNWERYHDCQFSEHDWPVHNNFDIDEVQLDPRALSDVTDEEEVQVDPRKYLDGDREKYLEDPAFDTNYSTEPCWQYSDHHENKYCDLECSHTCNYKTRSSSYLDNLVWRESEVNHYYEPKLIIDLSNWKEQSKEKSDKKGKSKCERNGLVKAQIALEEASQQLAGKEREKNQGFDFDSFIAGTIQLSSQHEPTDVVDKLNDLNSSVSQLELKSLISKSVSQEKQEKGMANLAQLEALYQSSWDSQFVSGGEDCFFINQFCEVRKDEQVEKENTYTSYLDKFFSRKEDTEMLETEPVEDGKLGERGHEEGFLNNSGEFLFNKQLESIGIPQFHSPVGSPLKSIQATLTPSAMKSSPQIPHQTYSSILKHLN
Chain of CDKL1 (Q00532 whole entry): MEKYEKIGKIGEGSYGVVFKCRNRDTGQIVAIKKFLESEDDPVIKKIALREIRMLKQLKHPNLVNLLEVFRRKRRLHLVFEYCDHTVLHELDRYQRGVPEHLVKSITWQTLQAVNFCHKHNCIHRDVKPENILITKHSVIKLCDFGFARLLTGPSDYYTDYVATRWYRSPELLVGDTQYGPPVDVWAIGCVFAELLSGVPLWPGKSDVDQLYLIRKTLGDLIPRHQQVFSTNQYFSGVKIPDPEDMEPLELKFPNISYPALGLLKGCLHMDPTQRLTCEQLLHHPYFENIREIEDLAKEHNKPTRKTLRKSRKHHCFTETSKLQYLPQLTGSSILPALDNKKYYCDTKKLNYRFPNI
Chain of PRKD3 (O94806 whole entry): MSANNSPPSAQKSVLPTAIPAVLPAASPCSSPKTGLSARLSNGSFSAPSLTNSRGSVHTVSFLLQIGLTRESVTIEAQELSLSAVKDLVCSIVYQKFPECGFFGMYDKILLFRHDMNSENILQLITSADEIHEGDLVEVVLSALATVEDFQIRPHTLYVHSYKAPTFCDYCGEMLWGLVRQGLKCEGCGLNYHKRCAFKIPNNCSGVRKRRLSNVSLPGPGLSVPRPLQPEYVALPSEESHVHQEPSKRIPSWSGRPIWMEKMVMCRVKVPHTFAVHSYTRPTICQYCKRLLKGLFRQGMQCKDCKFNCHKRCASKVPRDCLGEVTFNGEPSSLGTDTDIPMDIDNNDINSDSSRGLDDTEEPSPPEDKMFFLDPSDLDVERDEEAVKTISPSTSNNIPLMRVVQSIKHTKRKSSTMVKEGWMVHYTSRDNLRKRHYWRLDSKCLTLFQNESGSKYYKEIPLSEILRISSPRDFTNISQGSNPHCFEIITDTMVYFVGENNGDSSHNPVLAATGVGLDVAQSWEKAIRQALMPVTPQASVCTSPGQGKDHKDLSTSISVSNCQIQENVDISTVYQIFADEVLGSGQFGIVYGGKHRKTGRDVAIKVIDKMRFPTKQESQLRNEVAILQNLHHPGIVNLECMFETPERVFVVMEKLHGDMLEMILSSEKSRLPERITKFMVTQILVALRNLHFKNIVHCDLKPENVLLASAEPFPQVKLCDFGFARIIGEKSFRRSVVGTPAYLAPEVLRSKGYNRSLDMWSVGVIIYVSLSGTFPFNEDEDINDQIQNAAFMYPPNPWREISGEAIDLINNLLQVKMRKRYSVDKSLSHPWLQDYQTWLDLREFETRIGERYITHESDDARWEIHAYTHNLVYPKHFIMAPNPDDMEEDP
Chain of PIK3CA(C420R) (P42336 whole entry C420R): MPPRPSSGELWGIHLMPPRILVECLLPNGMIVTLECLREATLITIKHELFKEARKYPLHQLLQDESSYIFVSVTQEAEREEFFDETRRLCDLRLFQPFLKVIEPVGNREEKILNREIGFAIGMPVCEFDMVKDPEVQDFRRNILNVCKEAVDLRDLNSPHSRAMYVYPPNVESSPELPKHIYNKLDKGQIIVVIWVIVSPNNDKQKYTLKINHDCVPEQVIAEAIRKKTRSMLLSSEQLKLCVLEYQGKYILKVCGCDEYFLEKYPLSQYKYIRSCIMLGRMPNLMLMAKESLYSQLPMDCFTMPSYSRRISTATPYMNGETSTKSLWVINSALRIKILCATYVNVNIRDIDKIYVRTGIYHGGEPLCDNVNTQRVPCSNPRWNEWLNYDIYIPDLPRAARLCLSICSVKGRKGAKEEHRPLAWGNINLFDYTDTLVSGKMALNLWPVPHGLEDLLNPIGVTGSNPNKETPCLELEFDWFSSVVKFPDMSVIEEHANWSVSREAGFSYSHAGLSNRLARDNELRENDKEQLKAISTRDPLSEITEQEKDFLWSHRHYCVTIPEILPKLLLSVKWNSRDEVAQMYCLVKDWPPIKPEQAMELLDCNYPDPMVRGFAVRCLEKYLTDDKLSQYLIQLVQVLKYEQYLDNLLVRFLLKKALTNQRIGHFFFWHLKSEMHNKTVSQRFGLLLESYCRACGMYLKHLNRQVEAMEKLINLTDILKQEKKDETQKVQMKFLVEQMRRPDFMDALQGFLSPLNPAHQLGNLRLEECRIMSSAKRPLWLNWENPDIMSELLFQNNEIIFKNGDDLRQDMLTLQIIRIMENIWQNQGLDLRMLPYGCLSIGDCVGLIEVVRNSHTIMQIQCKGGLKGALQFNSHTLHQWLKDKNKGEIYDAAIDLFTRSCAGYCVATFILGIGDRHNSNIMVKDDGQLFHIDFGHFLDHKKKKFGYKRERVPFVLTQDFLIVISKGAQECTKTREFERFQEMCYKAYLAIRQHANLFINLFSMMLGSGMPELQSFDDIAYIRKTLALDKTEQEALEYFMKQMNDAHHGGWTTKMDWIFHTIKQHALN
Chain of ULK3 (Q6PHR2 whole entry): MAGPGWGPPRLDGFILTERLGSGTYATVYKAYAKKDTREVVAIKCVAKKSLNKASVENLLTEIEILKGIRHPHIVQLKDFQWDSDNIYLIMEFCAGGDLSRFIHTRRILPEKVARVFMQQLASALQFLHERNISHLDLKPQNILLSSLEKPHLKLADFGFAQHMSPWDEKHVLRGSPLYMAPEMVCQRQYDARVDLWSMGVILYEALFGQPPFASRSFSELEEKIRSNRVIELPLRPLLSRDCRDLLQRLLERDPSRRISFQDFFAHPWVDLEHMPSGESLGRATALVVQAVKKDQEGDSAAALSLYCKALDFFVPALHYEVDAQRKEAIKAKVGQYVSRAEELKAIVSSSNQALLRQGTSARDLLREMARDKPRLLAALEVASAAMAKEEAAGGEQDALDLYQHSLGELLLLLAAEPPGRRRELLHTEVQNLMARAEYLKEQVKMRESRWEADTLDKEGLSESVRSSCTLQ

SMILES: COc1cc2c(cn1)N(C)C(=O)[C@@H](NC(=O)c1nc3n(n1)[C@H](c1ccccc1)CC3)CC2 [GNE684, (S)-N-((S)-7-methoxy-1-methyl-2-oxo-2,3,4,5-tetrahydro-1H-pyrido[3,4-b]azepin-3-yl)-5-phenyl-6,7-dihydro-5H-pyrrolo[1,2-b][1,2,4]triazole-2-carboxamide]
- remaining binding at 10 µM (ULK3): 100%
- remaining binding at 10 µM (ERK3): 100%
- remaining binding at 10 µM (NEK4): 100%
- remaining binding at 10 µM [1]: 69%
- remaining binding at 10 µM (CSF1R-autoinhibited): 94%
- remaining binding at 10 µM (FAK): 85%
- remaining binding at 10 µM (CDKL3): 69%
- remaining binding at 10 µM (PIKFYVE): 100%
- remaining binding at 10 µM [2]: 91%
- remaining binding at 10 µM (PKN1): 94%
- remaining binding at 10 µM (ACVR1): 100%
- remaining binding at 10 µM (PIK3CA(C420R)): 100%
- remaining binding at 10 µM (FLT3(D835H)): 94%
- remaining binding at 10 µM (YANK2): 84%
- remaining binding at 10 µM [3]: 98%
- remaining binding at 10 µM (CDKL1): 74%
- remaining binding at 10 µM (FLT3(R834Q)): 100%
- remaining binding at 10 µM [4]: 79%
- remaining binding at 10 µM (PRKD3): 100%
- remaining binding at 10 µM (LRRK2): 91%
- remaining binding at 10 µM (DAPK3): 76%
